Tests used:
[1] = Inhibition of potato LOX5 by enzyme immuno assay; design: species or system Solanum tuberosum
[2] = molecular target: T1, Prostaglandin G/H synthase 1 (Ovis aries, UniProt P05979)
T1 sequence (P05979 whole entry): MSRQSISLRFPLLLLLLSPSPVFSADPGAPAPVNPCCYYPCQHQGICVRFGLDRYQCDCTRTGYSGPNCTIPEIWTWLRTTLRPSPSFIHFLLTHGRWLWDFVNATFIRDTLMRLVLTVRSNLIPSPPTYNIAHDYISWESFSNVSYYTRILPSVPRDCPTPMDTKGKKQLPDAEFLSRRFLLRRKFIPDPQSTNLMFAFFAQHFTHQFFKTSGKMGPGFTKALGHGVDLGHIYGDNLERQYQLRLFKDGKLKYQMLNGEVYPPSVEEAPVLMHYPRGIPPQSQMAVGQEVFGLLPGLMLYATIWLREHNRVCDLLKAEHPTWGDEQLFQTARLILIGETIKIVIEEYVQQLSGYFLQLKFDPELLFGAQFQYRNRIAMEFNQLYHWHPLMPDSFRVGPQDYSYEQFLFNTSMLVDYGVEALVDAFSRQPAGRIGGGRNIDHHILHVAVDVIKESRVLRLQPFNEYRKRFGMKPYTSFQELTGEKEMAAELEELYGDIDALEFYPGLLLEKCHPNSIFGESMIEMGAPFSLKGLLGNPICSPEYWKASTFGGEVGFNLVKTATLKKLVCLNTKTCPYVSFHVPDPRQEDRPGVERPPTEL
Description: Inhibition of ovine COX1 by enzyme immuno assay

Rattus norvegicus = experiment: Antiinflammatory activity against carrageenan-induced orally dosed rat assessed paw edema after 3 hrs; assay type: functional; conditions: po

SMILES	IC50 [1]	IC50 [2]	ED50 (Rattus norvegicus)
O=C(O)/C=C/c1ccc(O)c(O)c1 [CAFFEIC ACID]	3.47 µM	–	–
CS(=O)(=O)c1ccc(-n2nc(C(F)(F)F)cc2-c2ccn(O)c(=O)c2)cc1	0.35 µM	13.2 µM	66.9 mg/kg
Cc1ccc(-c2cc(C(F)(F)F)nn2-c2ccc(S(N)(=O)=O)cc2)cc1 [CELECOXIB]	> 10 µM	–	–
NS(=O)(=O)c1ccc(-n2nc(C(F)(F)F)cc2-c2ccn(O)c(=O)c2)cc1	4.9 µM	10.2 µM	99.8 mg/kg

Source: ChEMBL document CHEMBL1152140 (Bioorg Med Chem Lett, 2008)
